In assay [1] the test system is Streptococcus uberis. Nature of the assay: Antimicrobial activity against Streptococcus uberis ATCC 9529 harboring PAP1A R273P, PBP2B N366I/T402I and PBP2X E381K/Q554E mutation after 28 passages assessed as inhibition of visible growth by broth macrodilution method. In kind it is functional.
Assay [2] relates to Streptococcus uberis. Nature of the assay: Antimicrobial activity against Streptococcus uberis ATCC 8749 harboring PAP1A A227T/G386R, PBP2B N366I/T402I and PBP2X E381K/D524A/Q554E mutation after 28 passages assessed as inhibition of visible growth broth macrodilution method. In kind it is functional.
Assay [3] has as its system Streptococcus uberis. Briefly: Antimicrobial activity against Streptococcus uberis ATCC 8749 harboring PAP1A R273H, PBP2B N366I/T402I and PBP2X E381K/Q554E mutation after 16 passages assessed as inhibition of visible growth by broth macrodilution method. Format: functional.
The subject of assay [4] is Streptococcus uberis. Nature of the assay: Antimicrobial activity against Streptococcus uberis ATCC 9529 harboring PAP1A A227T/G386R, PBP2B N366I/T402I and PBP2X E381K/D524A/Q554E mutation after 39 passages assessed as inhibition of visible growth by broth macrodilution method. In kind it is functional.
Assay [5] has as its system Streptococcus uberis. Briefly: Antimicrobial activity against Streptococcus uberis isolate 20568 harboring PAP1A G386R, PBP2B N366I/T402I/V570A/P575S and PBP2X E381K/Q554E mutation assessed as inhibition of visible growth after 24 hrs by broth macrodilution method. Format: functional. The following applies: isolate 20568, 24 h.
Assay [6] has as its system Streptococcus uberis. Briefly: Antimicrobial activity against Streptococcus uberis ATCC 9529 harboring PBP2B N366I/T402I and PBP2X E381K/Q554E mutation assessed as inhibition of visible growth by broth macrodilution method. Format: functional.
The subject of assay [7] is Streptococcus uberis. Briefly: Antimicrobial activity against Streptococcus uberis ATCC 19436 assessed as inhibition of visible growth after 24 hrs by broth macrodilution method. The note with it: ATCC 19436, 24 h. Format: functional.
Assay [8] deals with Streptococcus uberis. Briefly: Antimicrobial activity against Streptococcus uberis isolate BL246 harboring PBP2B N366I/T402I and PBP2X E381K/Q554E mutation assessed as inhibition of visible growth after 24 hrs by broth macrodilution method. The following applies: isolate BL246, 24 h. Format: functional.
For assay [9], the system named is Streptococcus uberis. Nature of the assay: Antimicrobial activity against Streptococcus uberis isolate 20592 harboring and PBP2X E381K/Q554E mutation assessed as inhibition of visible growth after 24 hrs by broth macrodilution method. Format: functional. The following applies: isolate 20592, 24 h.
Assay [10] concerns Streptococcus uberis. Briefly: Antimicrobial activity against Streptococcus uberis ATCC 19436 harboring PAP1A A227T, PBP2B N366I/T402I and PBP2X E381K/Q554E mutation after 15 passages assessed as inhibition of visible growth by broth macrodilution method. In kind it is functional.
The test system of assay [11] is Streptococcus uberis. Briefly: Antimicrobial activity against Streptococcus uberis ATCC 8749 harboring PAP1A A227T/G386R, PBP2B N366I/T402I and PBP2X E381K/D524A/Q554E mutation after 37 passages assessed as inhibition of visible growth broth macrodilution method. In kind it is functional.
Assay [12] relates to Streptococcus uberis. Briefly: Antimicrobial activity against Streptococcus uberis ATCC 8749 harboring PBP2B N366I/T402I/V570A/P575S and PBP2X A492E mutation assessed as inhibition of visible growth by broth macrodilution method. Format: functional.
Assay [13] deals with Streptococcus uberis. Briefly: Antimicrobial activity against Streptococcus uberis ATCC 19436 harboring PAP1A A227T/G386R, PBP2B N366I/T402I and PBP2X E381K/D524A/Q554E mutation after 30 passages assessed as inhibition of visible growth by broth macrodilution method. Format: functional.
Assay [14] relates to Streptococcus uberis. Briefly: Antimicrobial activity against Streptococcus uberis isolate 1.11 harboring PAP1A G386R, PBP2B T593A and PBP2X E381K/Q554E mutation assessed as inhibition of visible growth after 24 hrs by broth macrodilution method. The following applies: isolate 1.11, 24 h.
Assay [15] has as its system Streptococcus uberis. Nature of the assay: Antimicrobial activity against Streptococcus uberis isolate 20618 harboring PAP1A G386R and PBP2X E381K/Q554E mutation assessed as inhibition of visible growth after 24 hrs by broth macrodilution method. In kind it is functional. The note with it: isolate 20618, 24 h.
The subject of assay [16] is Streptococcus uberis. Briefly: Antimicrobial activity against Streptococcus uberis ATCC 19436 harboring PAP1A A227T, PBP2B N366I/T402I and PBP2X E381K/D524A/Q554E mutation after 18 passages assessed as inhibition of visible growth by broth macrodilution method. In kind it is functional.
For assay [17], the system named is Streptococcus uberis. Briefly: Antimicrobial activity against Streptococcus uberis ATCC 9529 harboring PAP1A R273P, PBP2B N366I/T402I and PBP2X E381K/Q554E mutation after 11 passages assessed as inhibition of visible growth by broth macrodilution method. Format: functional.
Assay [18] has as its system Streptococcus uberis. Briefly: Antimicrobial activity against Streptococcus uberis isolate ALP 8144 harboring PBP2X E381K/Q554E mutation assessed as inhibition of visible growth after 24 hrs by broth macrodilution method. Format: functional. The note with it: isolate ALP 8144, 24 h.
Assay [19] concerns Streptococcus uberis. Nature of the assay: Antimicrobial activity against Streptococcus uberis isolate ALP8092 harboring PAP1A G386R and PBP2X E381K/Q554E mutation assessed as inhibition of visible growth after 24 hrs by broth macrodilution method. In kind it is functional. The following applies: isolate ALP8092, 24 h.

≈ marks a conversion by molar mass, not a printed value.

Take `CC1(C)S[C@@H]2[C@H](NC(=O)Cc3ccccc3)C(=O)N2[C@H]1C(=O)O` [PENICILLIN G]: the MIC in assay [1] worked out at 1 µg/mL (≈ 2.99 µM); in assay [2], 1 µg/mL (≈ 2.99 µM); in assay [3], 0.5 µg/mL (≈ 1.5 µM); in [4] it was 2 µg/mL (≈ 5.98 µM); in assay [5] it was 0.5 µg/mL (≈ 1.5 µM); in assay [6], 0.128 µg/mL (≈ 0.383 µM). For the same molecule, the MIC in assay [7] was 0.032 µg/mL (≈ 0.0957 µM); in assay [8] it was 0.25 µg/mL (≈ 0.748 µM); in assay [9], 0.5 µg/mL (≈ 1.5 µM); in assay [10], 0.5 µg/mL (≈ 1.5 µM); in assay [11] it was 2 µg/mL (≈ 5.98 µM); in [12], 0.016 µg/mL (≈ 0.0478 µM). Besides, the MIC is 2 µg/mL (≈ 5.98 µM) in assay [13]; 0.25 µg/mL (≈ 0.748 µM) in [14]; 0.25 µg/mL (≈ 0.748 µM) in [15]; 1 µg/mL (≈ 2.99 µM) in assay [16]; 0.5 µg/mL (≈ 1.5 µM) in [17]; 0.25 µg/mL (≈ 0.748 µM) in [18]. Further, the minimum inhibitory concentration (MIC) in assay [19] is 0.25 µg/mL (≈ 0.748 µM).

A word on the MIC: it is the lowest concentration that inhibits growth of the organism.

The record behind these values is ChEMBL document CHEMBL1240403, “Penicillin-binding protein gene alterations in Streptococcus uberis isolates presenting decreased susceptibility to penicillin” (2010).
